{"source": "patent US10588280B2", "about": "“Aided delivery of plant treatment agents” (Monsanto Technology LLC, priority 2014, dated 2020)", "assay_type_in_all_cases": "in vivo", "key": {"[1]": {"tested_on": "haploid seedlings derived from corn inbred 91DUQ1 or 83IDI1 (SAM)", "experiment": "Example 8: serial centrifugation with colchicine, unsubmerged spin at 340 g to 2000 g", "settings": "1250 ppm colchicine, submerged 50 g 3 min", "excerpt": "F1 hybrid-derived haploid seedlings derived from either female corn inbred line 91DUQ1 or male corn inbred line 83IDI1 were germinated in soil in a greenhouse in standard maize growing conditions and grown to the V1-V2 growth stage (1 week after planting). Seedlings were then removed from the soil, rinsed to remove residual soil, and partitioned into 5 samples comprising several dozen seedlings each.\nThis bundled PCS sample was placed into a centrifuge container, roots first. Each plant of the other four samples were individually wrapped to a PCS comprising a rod with a paraffin wrap and placed into a separate centrifuge container, one plant-PCS assembly per container, similar to that shown in FIG. 7.\nOnce attached to their respective PCSs and placed into their respective centrifuge containers, a solution comprising 1250 ppm colchicine was added to each container until each plant was submerged at least up until the SAM of every plant was submerged. All samples were then centrifuged with the SAMs submerged in treatment solution for 3 min at 50 g.\nFollowing the first centrifugation, the treatment solution was drained from each centrifugation container, and then each sample was subjected to an unsubmerged spin for 3 minutes at one of six different rates, ranging from 340 g to 2000 g, as shown in Table 9.\nFollowing the second centrifugation, the plants were removed from the centrifugation container and rinsed with water to remove any remaining colchicine solution, and then transplanted into 10-inch pots and tended in a growth room under standard maize growing conditions until they grew to maturity and flowered.\nSelf-pollinations were attempted with each plant that survived the treatment to produce pollen and an ear, and pollination success as determined within each sample."}, "[2]": {"tested_on": "haploid corn seedlings (SAM)", "experiment": "Example 2: single submerged centrifugation in colchicine, survival and doubling success", "settings": "for DE / Fert. Success / Initial Survival / Poll. Success: single submerged spin 50 g 10 min", "excerpt": "Seeds of 5 different F1 hybrid-derived haploid commercial corn lines were randomly-selected and germinated in a greenhouse. The resulting seedlings were removed from soil or growth media at the V1-V2 growth stage and the soil or growth media rinsed from the plants with water. One sample of several random seedlings within each haploid line was placed in a centrifuge sample container without regard to how the shoot-root axis of the plants would be orientated with respect to the force of acceleration generated during the planned centrifugation. Next, a plant treatment solution comprising 1000 ppm colchicine was poured into the container such that the solution submerged each plants SAM, and then the sample centrifuged at 50 g for 10 min with the SAMs submerged in the plant treatment agent.\nFollowing centrifugation, the plants were removed, rinsed with water to remove any remaining colchicine solution, and then recovered and tended in a light, humidity, and temperature-controlled greenhouse for several days before being transplanted to a nursery greenhouse.\nThe control sample received no centrifugation or colchicine exposure, but was otherwise handled identically as the treatment sample. During the subsequent growth of the plants, the initial survival, pollination success, fertilization success, and doubling efficiency (DE) were determined within each sample."}, "[3]": {"tested_on": "seedlings of inbred lines 83IDI1 or 91DUQ1", "experiment": "Example 10: seedling survival after unsubmerged centrifugation for 3 or 180 min with colchicine", "settings": "1250 ppm colchicine submerged 50 g 3 min, after one week", "experimental": "Seedlings of one of two genetically diverse inbred lines (83IDI1 or 91DUQ1) were germinated in a greenhouse and removed from soil or growth media at the V1-V3 growth stage and rinsed with water to remove residual soil. All seedlings were then secured in PCSs comprising wraps and rods, like that shown in FIG. 9, and subjected to a submerged spin at 50 g in a liquid treatment solution comprising 1250 ppm colchicine for 3 min.\nFollowing the first, submerged centrifugation, the plant treatment solution was decanted and the bundled seedlings were subjected to an unsubmerged centrifugation at 340 g for either 3 or 180 min.\nFollowing the second centrifugation, the plants were removed from the centrifugation container and rinsed with water to remove any remaining colchicine solution, and then recovered and tended in a light, humidity, and temperature-controlled greenhouse for one week, then the number of plants surviving were counted to determine the survival rate within each treatment."}, "haploid corn seedlings": {"tested_on": "haploid corn seedlings", "experiment": "Example 5: field transplanting survival after single or serial spin with colchicine", "settings": "for 3-wk Survival (field transplanting): 50 g", "experimental": "Haploid corn seedlings derived from a cross between commercial inbred 01DKD2 and the inducer KHI1 or commercial inbred 83IDI1 and KHI1 were treated by either single spin or serial spin centrifugation methods and recovered in a light, moisture, and temperature controlled environment for approximately 15 hours. Plants were then transplanted into a field and tended for three weeks, after which plant survival rates were assessed (Table 5)."}, "[4]": {"settings": "bundled PCS, unsubmerged 340 g 3 min"}, "[5]": {"settings": "individually-wrapped PCS, unsubmerged 340 g 3 min"}, "[6]": {"settings": "individually-wrapped PCS, unsubmerged 500 g 3 min"}, "[7]": {"settings": "individually-wrapped PCS, unsubmerged 750 g 3 min"}, "[8]": {"settings": "individually-wrapped PCS, unsubmerged 1000 g 3 min"}, "[9]": {"settings": "individually-wrapped PCS, unsubmerged 2000 g 3 min"}, "[10]": {"settings": "Ave: of five lines, 1000 ppm colchicine"}, "[11]": {"settings": "centrifuged samples, 1000 ppm colchicine, submerged 50 g 10 min, vs untreated controls"}, "[12]": {"settings": "line F1004, 1000 ppm colchicine"}, "[13]": {"settings": "line F1045, 1000 ppm colchicine"}, "[14]": {"settings": "line F1095, 1000 ppm colchicine"}, "[15]": {"settings": "line F1118, 1000 ppm colchicine"}, "[16]": {"settings": "line F1900, 1000 ppm colchicine"}}}
{"molecule": "COc1cc2c(c(OC)c1OC)-c1ccc(OC)c(=O)cc1[C@@H](NC(C)=O)CC2", "note": "[colchicine]", "values": [{"measurement": "DE", "setting": "[1]; [4]", "result": 68.9, "unit": "%"}, {"measurement": "Fertilization Success", "setting": "[1]; [4]", "result": 85.0, "unit": "%"}, {"measurement": "Pollination success", "setting": "[1]; [4]", "result": 90.0, "unit": "%"}, {"measurement": "Survival Rate", "setting": "[1]; [4]", "result": 90.0, "unit": "%"}, {"measurement": "DE", "setting": "[1]; [5]", "result": 89.3, "unit": "%"}, {"measurement": "Fertilization Success", "setting": "[1]; [5]", "result": 96.2, "unit": "%"}, {"measurement": "Pollination success", "setting": "[1]; [5]", "result": 100.0, "unit": "%"}, {"measurement": "Survival Rate", "setting": "[1]; [5]", "result": 92.9, "unit": "%"}, {"measurement": "DE", "setting": "[1]; [6]", "result": 96.4, "unit": "%"}, {"measurement": "Fertilization Success", "setting": "[1]; [6]", "result": 100.0, "unit": "%"}, {"measurement": "Pollination success", "setting": "[1]; [6]", "result": 100.0, "unit": "%"}, {"measurement": "Survival Rate", "setting": "[1]; [6]", "result": 96.4, "unit": "%"}, {"measurement": "DE", "setting": "[1]; [7]", "result": 83.3, "unit": "%"}, {"measurement": "Fertilization Success", "setting": "[1]; [7]", "result": 95.2, "unit": "%"}, {"measurement": "Pollination success", "setting": "[1]; [7]", "result": 100.0, "unit": "%"}, {"measurement": "Survival Rate", "setting": "[1]; [7]", "result": 87.5, "unit": "%"}, {"measurement": "DE", "setting": "[1]; [8]", "result": 85.7, "unit": "%"}, {"measurement": "Fertilization Success", "setting": "[1]; [8]", "result": 100.0, "unit": "%"}, {"measurement": "Pollination success", "setting": "[1]; [8]", "result": 92.3, "unit": "%"}, {"measurement": "Survival Rate", "setting": "[1]; [8]", "result": 92.9, "unit": "%"}, {"measurement": "DE", "setting": "[1]; [9]", "result": 63.6, "unit": "%"}, {"measurement": "Fertilization Success", "setting": "[1]; [9]", "result": 87.5, "unit": "%"}, {"measurement": "Pollination success", "setting": "[1]; [9]", "result": 100.0, "unit": "%"}, {"measurement": "Survival Rate", "setting": "[1]; [9]", "result": 72.7, "unit": "%"}, {"measurement": "DE", "setting": "[2]; [10]", "result": 30, "unit": "%"}, {"measurement": "Fert. Success", "setting": "[2]; [10]", "result": 84, "unit": "%"}, {"measurement": "Initial Survival", "setting": "[2]; [10]", "result": 77, "unit": "%"}, {"measurement": "Poll. Success", "setting": "[2]; [10]", "result": 47, "unit": "%"}, {"measurement": "drop in initial survival as compared to controls", "setting": "[2]; [11]", "result": 15, "unit": "%"}, {"measurement": "improvement of overall average DE as compared to controls", "setting": "[2]; [11]", "result": 25, "unit": "%"}, {"measurement": "DE", "setting": "[2]; [12]", "result": 50, "unit": "%"}, {"measurement": "Fert. Success", "setting": "[2]; [12]", "result": 100, "unit": "%"}, {"measurement": "Initial Survival", "setting": "[2]; [12]", "result": 100, "unit": "%"}, {"measurement": "Poll. Success", "setting": "[2]; [12]", "result": 50, "unit": "%"}, {"measurement": "DE", "setting": "[2]; [13]", "result": 25, "unit": "%"}, {"measurement": "Fert. Success", "setting": "[2]; [13]", "result": 100, "unit": "%"}, {"measurement": "Initial Survival", "setting": "[2]; [13]", "result": 58, "unit": "%"}, {"measurement": "Poll. Success", "setting": "[2]; [13]", "result": 43, "unit": "%"}, {"measurement": "DE", "setting": "[2]; [14]", "result": 47, "unit": "%"}, {"measurement": "Fert. Success", "setting": "[2]; [14]", "result": 78, "unit": "%"}, {"measurement": "Initial Survival", "setting": "[2]; [14]", "result": 87, "unit": "%"}, {"measurement": "Poll. Success", "setting": "[2]; [14]", "result": 69, "unit": "%"}, {"measurement": "DE", "setting": "[2]; [15]", "result": 10, "unit": "%"}, {"measurement": "Fert. Success", "setting": "[2]; [15]", "result": 100, "unit": "%"}, {"measurement": "Initial Survival", "setting": "[2]; [15]", "result": 40, "unit": "%"}, {"measurement": "Poll. Success", "setting": "[2]; [15]", "result": 25, "unit": "%"}, {"measurement": "DE", "setting": "[2]; [16]", "result": 10, "unit": "%"}, {"measurement": "Fert. Success", "setting": "[2]; [16]", "result": 40, "unit": "%"}, {"measurement": "Initial Survival", "setting": "[2]; [16]", "result": 100, "unit": "%"}, {"measurement": "Poll. Success", "setting": "[2]; [16]", "result": 50, "unit": "%"}, {"measurement": "individuals that produced pollen and silks", "setting": "[2]; minimum over all five inbred samples receiving the experimental treatment", "result": "at least 25%"}, {"measurement": "Survival", "setting": "[3]; pedigree 83IDI1, unsubmerged 340 g for 3 minutes", "result": 93, "unit": "%"}, {"measurement": "Survival", "setting": "[3]; pedigree 83IDI1, unsubmerged 340 g for 180 minutes", "result": 94, "unit": "%"}, {"measurement": "Survival", "setting": "[3]; pedigree 91DUQ1, unsubmerged 340 g for 3 minutes", "result": 95, "unit": "%"}, {"measurement": "Survival", "setting": "[3]; pedigree 91DUQ1, unsubmerged 340 g for 180 minutes", "result": 96, "unit": "%"}, {"measurement": "3 week post transplanting survival rate", "setting": "haploid corn seedlings; either haploid line, regardless of colchicine concentration or second spin", "result": "higher than 80%"}, {"measurement": "3-wk Survival (field transplanting)", "setting": "haploid corn seedlings; haploid parent 01DKD2, 1000 ppm colchicine, submerged 10 min, no second spin", "result": 94, "unit": "%"}, {"measurement": "3-wk Survival (field transplanting)", "setting": "haploid corn seedlings; haploid parent 01DKD2, 1250 ppm colchicine, submerged 3 min, unsubmerged 3 min, 335 g", "result": 89, "unit": "%"}, {"measurement": "3-wk Survival (field transplanting)", "setting": "haploid corn seedlings; haploid parent 83IDI1, 1000 ppm colchicine, submerged 10 min, no second spin", "result": 81, "unit": "%"}, {"measurement": "3-wk Survival (field transplanting)", "setting": "haploid corn seedlings; haploid parent 83IDI1, 1250 ppm colchicine, submerged 3 min, unsubmerged 3 min, 335 g", "result": 83, "unit": "%"}]}
